# Tested on: human CRHR1
# Assay: CRH-induced luciferase reporter blocking in CHO-CRE-hCRHR1 cells
# Type: cell-based
# Settings: in words
# Procedure: To generate a CHO-CRE-Luciferase Reporter stable cell line, a mixture of 2 million CHO-K1 cells with 10 μg of pGL4.29/luc2P/CRE/Hygro plasmid in 100 μl of Ingenio solution was transferred into electroporation cuvettes and subjected to 1 or 2 pulses using an Electro Cell Manipulator (950 uF and 120V). The processed cells were transferred into a 6-well plate with 2 mL of Dulbecco's Modified Eagle's Medium (DMEM)/F12 with 10% fetal bovine serum (FBS). After 24 hours, selection antibiotic hygromycin at 500 μg/ml was added to the cells. […] Using matrix dilution, the pool of CHO-CRE cells was subcloned into 96-well plates. Individual stable clones were harvested when selected colonies became obvious. Positive clones were validated using a series of diluted forskolin. Validated positive clones were frozen for the future use.
# To create CHO-CRE-hCRHR1,-hCRHR2,-mCRHR1, and -mCRHR2 reporter cell lines, pcDNA3.1-hCRHR1,-hCRHR2,-mCRHR1, and -mCRHR2 were introduced into CHO-CRE cells established above by electroporation as described above. Selection antibiotics hygromycin at 500 μg/ml and G418 at 1,000 μg/ml were employed. […]
# 50 μl of 4× serially diluted antibodies was added (8 points, ¼ diluted by growth medium) to plates containing CHO-CRE-hCRHR1 cells, and 50 μl of 4×CRH (4× is 2 nM, final is 0.5 nM) was added. […] Plates were read in a luciferase plate reader (En Vision, PerkinElmer).
structure (smiles),measurement,value
"CCCCN(CC)c1nc(C)nc2c1c(C)c(C)n2-c1c(C)cc(C)cc1C [Antalarmin, N-butyl-N-ethyl-(2,5,6-trimethyl-7-(2,4,6-trimethylphenyl)-7H-pyrrolo (2,3-d)pyrimidin-4-yl)amine, reference compound]",blocking activity in human CRHR1 luciferase reporter assay (CRH-mediated luciferase expression),blocked
